Measured values published in US4906639A, “Cycloalkanol esters of dihydrolysergic acid” (Eli Lilly and Company, priority 1989, dated 1990).
Structures can show the parent of a compound that is named as a salt.

System: 5HT2 receptors
Assay: not given
Conditions: mediated by 5HT2 receptors; Cohen I; cited from earlier work
For CC(O)C(C)OC(=O)[C@@H]1C[C@@H]2c3cccc4c3c(cn4C(C)C)C[C@H]2N(C)C1 (stereo partly drawn) [LY53857, 1-isopropyl-6-methyl-8β-(1-methyl-2-hydroxy)propoxycarbonyl-5R-ergoline], the “antagonism of vascular contraction to serotonin” value is given as “potent antagonist”.

Target: T1, 5HT2 receptors (Rattus norvegicus, UniProt P14842)
T1 construct: their external jugular veins and thoracic aortas dissected free of connective tissue; from tissue; host or cells: isolated external jugular vein of male Wistar rats
T1 sequence (P14842 whole entry): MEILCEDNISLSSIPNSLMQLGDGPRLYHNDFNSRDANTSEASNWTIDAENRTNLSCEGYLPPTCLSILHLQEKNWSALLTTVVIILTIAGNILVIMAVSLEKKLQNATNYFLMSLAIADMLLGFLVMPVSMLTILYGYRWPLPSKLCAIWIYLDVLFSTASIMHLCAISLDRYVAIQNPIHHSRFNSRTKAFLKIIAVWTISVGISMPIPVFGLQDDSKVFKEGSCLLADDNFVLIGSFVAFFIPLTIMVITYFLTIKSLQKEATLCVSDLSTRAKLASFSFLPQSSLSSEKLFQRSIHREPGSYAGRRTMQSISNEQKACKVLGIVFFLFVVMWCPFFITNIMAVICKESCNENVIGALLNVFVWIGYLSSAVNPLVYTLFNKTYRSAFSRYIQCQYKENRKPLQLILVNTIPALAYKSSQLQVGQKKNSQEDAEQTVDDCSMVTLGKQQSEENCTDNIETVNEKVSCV
Assay: Apparent dissociation constants for 5HT2 receptors determined in the rat jugular vein (antagonism of contraction to serotonin)
Assay type: cell-based, rat (male Wistar)
Conditions: antagonist incubated one hour, agonist serotonin, 37° C., read-out: -log KB (apparent dissociation constant, negative logarithm) (converted)
Description: An initial optimum resting force of 1 and 4 g was applied to the jugular vein and aorta, respectively. […] Exp. Ther., 205, 400 (1978). Alpha receptor antagonist activity was evaluated in the aorta.
With CCN1C[C@H](C(=O)OC2CCCCC2)C[C@@H]2c3cccc4c3c(cn4C(C)C)C[C@H]21 [C2 H5, cyclohexyl, HCl, 1-Isopropyl-6-ethyl-8β-cyclohexyloxycarbonylergoline] the Kb was 15.5 nM.
CC(C)n1cc2c3c(cccc31)[C@H]1C[C@@H](C(=O)OC3CCC(=O)CC3)CN(C)[C@@H]1C2 [CH3,4-oxocyclohexyl, maleate, 4-Oxocyclohexyl 1-isopropyl-9,10-dihydrolysergate] gave a Kb of 0.0977 nM.
For CC(C)n1cc2c3c(cccc31)[C@H]1C[C@@H](C(=O)OC3CCCCC3)CN(C)[C@@H]1C2 [CH3, cyclohexyl, maleate, cyclohexyl 1-isopropyl-9,10-dihydrolysergate maleate], the Kb was 2.14 nM.
CCCN1C[C@H](C(=O)OC2CCCCC2)C[C@@H]2c3cccc4c3c(cn4C(C)C)C[C@H]21 [n-C3 H7, cyclohexyl, HCl] gave a Kb of 85.1 nM.
Compound CCCCN1C[C@H](C(=O)OC2CCCCC2)C[C@@H]2c3cccc4c3c(cn4C(C)C)C[C@H]21 [n-C4 H9, cyclohexyl, HCl, 1-Isopropyl-6-n-butyl-8β-cyclohexyloxycarbonyl ergoline hydrochloride] has a Kb of 39.8 nM.
